In general, inhibition refers to the change of the read-out against control, counted positive when it falls.

SMILES strings stand for the structures.

One assay has as its system RXF-2667. As to the kind of experiment: RCC PDX single animal trial, RXF-2667. The class given is in vivo, mouse. The settings on record: HC-5404 30 mg/kg PO BID, n=1. From the text:
(§1) This example investigated the effect of HC-5404 in combination with VEGFR-TKIs in inhibiting tumor growth using 12 RCC PDX tumor models, following procedures analogous to those described above.
(§2) Single animal per group (n=1) trial of animals harboring diverse RCC PDX models were used in this study.

Assay [1] relates to tumor vasculature and pericyte cells of 786-O xenografts progressed on axitinib. As to the kind of experiment: IHC of tumor vasculature and pericytes in 786-O xenografts that progressed on axitinib. The settings on record: 7 days after rerandomization (FIG. 92). The class given is in vivo, mouse. How it is done: Formalin-fixed paraffin-embedded samples were sectioned at 5 μm thickness and mounted on Superfrost Plus microscope slides (Fisher Scientific). All immunohistochemical (IHC) staining was performed on Bond Rx auto-stainer (Leica Biosystems) using the conventional TSA-amplified detection system. Primary antibodies used were as follows: α-CD31 (Abcam #ab182981), α-smooth muscle actin (SMA; Abcam #ab124964), α-Meca32 (Novus Biologicals #NB100-77668). TSA-conjugated Alexa488 and Alexa647 fluorophores from Invitrogen (#B40953 and #B40958) were used at 1:500 dilution. Slides were counterstained with DAPI and cover slipped using Mowiol antifade mounting media (Sigma #D2522).
Slides were imaged with Aperio Versa 200 (Leica Biosystems) whole-slide scanner using 10×/0.32NA objective, and the data were analyzed using custom-written macros in ImageJ/FIJI (NIH). Briefly, 150 μm of outer edges of the tumor sections were eliminated from the analysis. Gaussian-blurred DAPI channel was used to measure the area of the tissue. Scans of […] were processed with median filter to remove noise, then positive areas were measured with appropriate threshold levels. % positive area for each marker was calculated. CD31-SMA double positive areas were measured via image calculation of the binary images. One-way ANOVA and pair-wise comparisons were performed on the data using Prism GraphPad.
After 14 days of treatments, 77 mice bearing the largest tumors were rerandomized into four PD arms (n=8), four efficacy arms (n=10), and 5 tumors sampled on day of rerandomization as a baseline. The remaining animals were removed from study.

In another assay the test system is pPERK in 786-O tumors. The assay can be described thus: pPERK in 786-O tumor xenografts. The class given is in vivo, mouse.
The target in a further assay is RIOK2 (Homo sapiens, UniProt Q9BVS4). The assay can be described thus: KINOMEScan biochemical panel assay, RIOK2. The assay is classed as binding. The settings on record: 1000 nM. How it is done: (§3) The selectivity of HC-5404 against the broader kinome was then evaluated using a KINOMEScan biochemical panel assay that measured binding against 468 unique kinases, including 403 wild-type human kinases and 59 mutant isoforms.

The next assay deals with pPERK in Caki-1 tumors. The assay can be described thus: pPERK in Caki-1 tumor xenografts. The assay is classed as in vivo, mouse. How it is done:
Samples were put in 500 μL of Novex lysis buffer consisting of 2× Novex Tris-Glycine SDS sample buffer (ThermoFisher LC2676), 1× Phosphatase Inhibitor Cocktail III (Sigma P0044), 1× PhosphataseArrest I (Gbioscience 113P-D), 1×2-mercaptoethanol (Gibco 21985023), 1× Benzonase (EMD Millipore Corp 70746-3), and 1× Protease inhibitor cocktail tablet (Roche/Sigma 11836170001). Samples were homogenized with the Polytron and heated for 10 min at 95 °C. They were then centrifuged at max speed for 10 min and the supernatant was transferred. Protein concentrations of samples were measured using the Pierce 660 nm Protein assay kit (Thermo Scientific 22660) according to the manufacturer's instructions.
Western Blot analysis was performed on the SimpleWestern high-throughput protein analysis platform (ProteinSimple 004-650) according to manufacturer's protocol using a 12-230 kDA Separation Module (ProteinSimple SM-W004) and Total Protein Detection Module (ProteinSimple DM-TP01). Antibodies used were: (Add info for other antibodies used) pPERK (Lilly; 1:50) and PERK (Cell Signaling Technology 5683; 1:200). All protein analytes were normalized to total protein loaded on capillary. […]

In another assay the target is BLK (Homo sapiens, UniProt P51451). The assay can be described thus: KINOMEScan biochemical panel assay, BLK. The assay is classed as binding. The settings on record: 1000 nM. How it is done:
as §3

A further assay has as its system A498 RCC xenograft. As to the kind of experiment: A498 RCC xenograft tumor growth. The assay is classed as in vivo, mouse. How it is done: Xenograft RCC models were generated as follows: Female NOD.SCID mice (6-8 weeks of age) were injected with A498 RCC cells (5×10^6 cells/mouse), female Balb/c Nude mice (6-8 weeks old) were implanted with 786-O RCC cells (5×10^6 cells/mouse) or Caki-1 RCC cells (6×10^6 cells/mouse), female Athymic Nude-Foxn1nu mice (7-8 weeks of age) were implanted with MFE280 endometrial cells (10×10^6 cells/mouse). Cells were implanted into the flank of animals.
Once tumor tumors reached volume of typically 150-250 mm^3, animals were randomized by tumor volume into the treatment groups of 8 or 10 animals per group. In the single animal trial with RCC PDX models, only one animal per group was enrolled.
Body weight and tumor volume were measured twice weekly. Tumor volume was calculated using the formula [tumor volume (mm^3)=π/6×length×width^2] and plotted as means+SEM. The percentage of tumor growth inhibition was calculated at the end of the study using the formula: […], if ΔT>0, ΔT, mean tumor volume of the drug-treated group on the observation day of the study—mean tumor volume of the drug-treated group on initial day of dosing; ΔC, mean tumor volume of the control group on the observation day of the study—mean tumor volume of the control group on initial day of dosing. Regression was calculated using the formula=100×ΔT/Tinitial, if ΔT<0. Animals with >50% regressions were partial responders. Animals with tumor volume of 0 (no measurable tumor) were considered as complete responders, and animals with <50% tumor regression and 30% growth over the baseline were considered as stable disease. Animals with tumors>30% increase over the baseline were considered progressive disease. The % change in body weight was calculated by the formula (body weight on observation day−body weight on initial day)/body weight on initial day×100%.

The test system of another assay is RXF-2540. As to the kind of experiment: RCC PDX single animal trial, RXF-2540. The settings on record: HC-5404 30 mg/kg PO BID, n=1. The assay is classed as in vivo, mouse.
Description: as §1, §2

A further assay concerns the target T1, PERK (Homo sapiens, UniProt Q9NZJ5).
T1 construct: purchased Carna
As to the kind of experiment: cell-free FRET-based biochemical assay, PERK. The settings on record: role: inhibitor; ratio of IC50 values. How it is done:
The potency of HC-5404 against four ISR kinases was evaluated in cell-free FRET-based biochemical assays, following manufacturer's instructions (Carna).
Cell-free biochemical assays were used to evaluate the selectivity of HC-5404 for PERK, relative to the ISR kinases GCN2, HRI, and PKR. In these assays, recombinant target kinases were incubated with […] and an eIF2α-based fluorogenic substrate, and kinase activity was evaluated in presence of HC-5404 across a concentration series.

Where [2] appears, read: 30 mg/kg PO BID, seven days (FIG. 30).

Chain of RIOK2 (Q9BVS4 whole entry, canonical isoform): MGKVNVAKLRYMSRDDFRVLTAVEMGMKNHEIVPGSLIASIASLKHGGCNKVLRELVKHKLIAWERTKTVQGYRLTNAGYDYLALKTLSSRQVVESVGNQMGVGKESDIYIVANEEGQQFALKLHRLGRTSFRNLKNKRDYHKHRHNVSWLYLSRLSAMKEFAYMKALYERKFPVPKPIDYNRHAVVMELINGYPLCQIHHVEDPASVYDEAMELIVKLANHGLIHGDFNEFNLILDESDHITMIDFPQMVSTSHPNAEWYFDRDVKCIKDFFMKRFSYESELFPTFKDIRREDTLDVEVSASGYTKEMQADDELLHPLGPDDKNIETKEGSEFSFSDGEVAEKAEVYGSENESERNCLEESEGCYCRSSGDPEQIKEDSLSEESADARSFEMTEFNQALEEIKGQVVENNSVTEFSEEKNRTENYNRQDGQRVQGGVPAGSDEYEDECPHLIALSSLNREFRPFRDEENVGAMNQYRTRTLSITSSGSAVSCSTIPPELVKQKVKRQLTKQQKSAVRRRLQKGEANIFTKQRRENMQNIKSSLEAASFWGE
Chain of BLK (P51451 whole entry): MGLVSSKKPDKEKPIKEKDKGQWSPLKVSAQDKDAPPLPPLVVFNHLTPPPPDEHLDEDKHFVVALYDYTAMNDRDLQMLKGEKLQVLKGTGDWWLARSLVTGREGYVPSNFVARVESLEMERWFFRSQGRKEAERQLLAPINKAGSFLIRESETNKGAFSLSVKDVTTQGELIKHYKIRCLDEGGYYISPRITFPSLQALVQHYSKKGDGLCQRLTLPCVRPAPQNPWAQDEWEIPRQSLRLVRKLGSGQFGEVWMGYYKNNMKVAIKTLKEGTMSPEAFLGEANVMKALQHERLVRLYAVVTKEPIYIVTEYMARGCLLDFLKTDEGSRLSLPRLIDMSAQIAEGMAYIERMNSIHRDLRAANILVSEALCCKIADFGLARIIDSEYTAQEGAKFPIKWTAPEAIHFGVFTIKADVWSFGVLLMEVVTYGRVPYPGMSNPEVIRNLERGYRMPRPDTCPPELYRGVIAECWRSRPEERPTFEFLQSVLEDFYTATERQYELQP
T1 sequence (Q9NZJ5 30-1116): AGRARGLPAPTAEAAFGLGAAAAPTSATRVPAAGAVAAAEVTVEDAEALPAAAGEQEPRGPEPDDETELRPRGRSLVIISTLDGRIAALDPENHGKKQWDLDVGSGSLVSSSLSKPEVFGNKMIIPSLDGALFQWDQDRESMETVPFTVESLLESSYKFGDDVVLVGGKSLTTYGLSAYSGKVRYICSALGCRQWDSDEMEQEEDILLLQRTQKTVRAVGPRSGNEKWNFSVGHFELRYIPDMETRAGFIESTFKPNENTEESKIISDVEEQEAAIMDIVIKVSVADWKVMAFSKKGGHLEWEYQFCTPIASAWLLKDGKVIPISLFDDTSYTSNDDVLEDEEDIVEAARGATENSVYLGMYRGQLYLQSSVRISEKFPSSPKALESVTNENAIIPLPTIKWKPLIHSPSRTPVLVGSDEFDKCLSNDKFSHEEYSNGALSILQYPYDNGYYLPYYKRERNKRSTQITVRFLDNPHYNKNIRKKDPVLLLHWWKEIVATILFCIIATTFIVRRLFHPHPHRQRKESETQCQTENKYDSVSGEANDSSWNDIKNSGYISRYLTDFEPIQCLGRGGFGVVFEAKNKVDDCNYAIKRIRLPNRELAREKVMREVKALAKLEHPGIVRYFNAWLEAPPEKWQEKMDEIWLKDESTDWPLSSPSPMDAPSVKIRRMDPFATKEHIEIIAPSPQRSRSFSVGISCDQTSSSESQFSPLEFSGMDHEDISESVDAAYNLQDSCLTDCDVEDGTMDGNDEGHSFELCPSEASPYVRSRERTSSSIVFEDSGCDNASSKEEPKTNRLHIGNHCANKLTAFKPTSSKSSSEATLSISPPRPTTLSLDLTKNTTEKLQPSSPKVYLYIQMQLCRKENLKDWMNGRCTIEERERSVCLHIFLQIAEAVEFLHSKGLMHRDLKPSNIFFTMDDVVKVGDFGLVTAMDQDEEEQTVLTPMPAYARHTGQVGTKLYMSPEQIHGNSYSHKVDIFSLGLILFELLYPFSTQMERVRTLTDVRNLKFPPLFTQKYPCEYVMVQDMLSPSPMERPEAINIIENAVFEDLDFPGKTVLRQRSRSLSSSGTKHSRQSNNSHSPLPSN

For `Cc1cc(NC(=O)[C@H](O)c2cc(F)cc(F)c2)ccc1-c1cnc(N)c(C(=O)NC(C)C)c1` [HC-5404, (R)-2-amino-5-(4-(2-(3,5-difluorophenyl)-2-hydroxyacetamido)-2-methylphenyl)-N-isopropylnicotinamide], the “antitumor efficacy as monotherapy” value in the assay with RXF-2667 and in the assay on RXF-2540 was “exhibited antitumor efficacy” in each case. Besides, the “proportion of smooth muscle actin (SMA)” value in assay [1] is recorded as “decreased”. The “pPERK expression in 786-O” value in the assay with pPERK in 786-O tumors (setting [2]) is “strongly inhibited pPERK expression”. The “time of return of pPERK to baseline in 786-O tumors” value in the assay on pPERK in 786-O tumors (30 mg/kg, post dose) is on record as not above 8 h. Moreover, the “pPERK levels in 786-O” value in the assay on pPERK in 786-O tumors (DC-101 study, 4 days of treatment (FIG. 37)) is on record as “inhibited the pPERK signal”. The compound also showed an inhibition at 30 mg/kg with pPERK in 786-O tumors (Mus musculus, 786-0, 30 mg/kg, 1 h post dose) of approximately 90%. Moreover, the “VEGFR-TKI-induced pPERK accumulation in 786-O tumors” value with pPERK in 786-O tumors (PD arm, 7 days, HC-5404 in combination with VEGFR-TKIs) was “inhibited by the addition of HC-5404”. For the same compound, the “inhibition of RIOK2” value at RIOK2 is reported as “inhibited”. In the assay on pPERK in Caki-1 tumors (setting [2]), the “pPERK expression in Caki-1” value was “strongly inhibited pPERK expression”. Moreover, the “pPERK levels in Caki-1” value with pPERK in Caki-1 tumors (DC-101 study, 4 days of treatment, low signal-to-noise (FIG. 37)) is recorded as “not affected”. The “inhibition of BLK” value at BLK is “inhibited”. Also, the TGI with A498 RCC xenograft (10 and 30 mg/kg PO BID tested, 28 days (FIG. 36)) is reported as approximately 41%; in the assay with A498 RCC xenograft (single agent: HC-5404 30 mg/kg PO BID or sunitinib 20 mg/kg PO QD (FIG. 31)) it was ~ 40%. Besides, the “biochemical selectivity for PERK over GCN2, HRI and PKR” value at PERK is reported as more than 2000 fold.
